{"source": "patent US20250134122A1", "about": "“PEDIATRIC NUTRITIONAL COMPOSITIONS AND METHODS FOR INFANTS DELIVERED BY C-SECTION” (Mead Johnson Nutrition Company, priority 2018, published 2025)", "tested_on": "mouse fecal microbiota", "experiment": "Gut microbiota community structure (16S rRNA V4-V5 sequencing, β-diversity, PCoA) after 3 weeks on experimental diets", "format": "in vivo", "conditions": "adult male C57bl/6 mice, 3 weeks of feeding; versus Control-fed or SAL-fed mice; ADONIS p<0.05", "text": "Adult male C57bl/6 strains of Mus musculus (Charles Rivers Laboratories, Wilmington, MA) between 6-8 weeks of age were used in the study. After being received from the vendor, mice were placed on one of three experimental diets. Animals were given ad libitum access to water, and maintained on the experimental diets for 3 weeks. Experimental diets were: (1) Control diet (AlN-93G mouse chow); (2) AlN-93G supplemented with galactooligosaccharides (GOS 21.2 g/kg)+polydextrose (PDX 6.6 g/kg)+sialyllactose (SAL 2 g/kg); (3) AlN-93G supplemented with SAL.\nColon contents were removed via direct excision for metabolomic analysis, and the colon tissue was briefly washed in a PBS bath so as to not disturb the mucous layer. DNA was extracted from the medial section of the colon (˜10 mg) using a Qiagen DNA Mini Kit, following manufacturer's instructions with slight modifications. Briefly, tissues were incubated for 45 min at 37° C. in lysozyme buffer (20 mg/ml lysozyme, 20 mM TrisHCL, 2 mM EDTA, 1.2% Triton-x, pH 8.0), then bead-beat for 150 sec with 0.7 mm zirconia beads. Samples were incubated at 56° C. for 2 hr with Buffer ATL and Proteinase K, then incubated at 56° C. for 30 min and 95° C. for 10 min upon addition of Buffer AL. […] DNA was quantified with the Qubit 2.0 Fluorometer (Life Technologies, Carlsbad, CA) using the dsDNA Broad Range Assay Kit. […]"}
{"substance": "sialyllactose [SAL]", "values": [{"measurement": "mouse fecal microbiota community structure (β-diversity; Unweighted UniFrac), PCoA clustering", "value": "not achieved"}]}
